From patent US20090087425A1, “Combination of nitroderivatized steroid and bronchodilator for treating respiratory disease” (Topigen Pharmaceuticals Inc., priority 2007, published 2009)
“And” between values parts separate entries of the source, which are not always exact repeats. Equal values may be shown once. “Also recorded” adds a separate entry of the source. Read-outs that look alike come from different tables or passages of the source.

Columns and labels:
[1] = system: bronchoconstriction induced by histamine; test: Histamine-induced bronchoconstriction in conscious guinea-pigs, whole body plethysmography (sGaw); type: in vivo, guinea-pig; conditions: for Duration of significant reduction of AHR after treatment: TPI-1020 0.3 mg/ml, or TPI-1020 0.3 mg/ml + salbutamol 20 μg/ml
[2] = asthmatic patients, cited from earlier work
[3] = system: bronchoconstriction induced by methacholine; test: Methacholine-induced bronchoconstriction in conscious guinea-pigs, whole body plethysmography (sGaw); type: in vivo, guinea-pig
Procedure: Groups of six male Dunkin-Hartley guinea-pigs, weighing 350-450 g were used throughout. Animals received food and water ad libitum and lighting was maintained in the room (22+/−2° C.) on a 12 h cycle. This work complied with the guidelines for the care and use of laboratory animals according to the Animals (Scientific Procedures) Act 1986.
Whole body plethysmography of the conscious guinea-pig was used to monitor airway function, recorded as specific airways conductance (sGaw). The method was as described by Griffiths-Johnson et al. (J. Pharmacol. Meth. 1988; 11:233-240), although a computerized data acquisition system replaced the original oscilloscope and angle resolver (Danahay et al. Clin. Exp. Allergy 1997; 28:513-522). Animals were fitted with a face mask and placed in a restrainer which was then slid into the plethysmograph chamber. The computer ran AcqKnowledge software using a Biopack data acquisition system. This system was capable of acquiring and storing data referring to the air across a pneumotachograph (Mercury FIL) as the animal breathed. The resulting change in box volume (pressure) was simultaneously measured.
Changes in air flow and box pressure were measured using UP1 and UP2 pressure transducers, respectively. The resulting waveforms could then be rapidly analysed by comparing the gradients of the flow and the box pressure waves at a point where flow tended towards zero, i.e. end tidal flow. A function of these two parameters, allowing for air pressure and the weight of the animal, gave the resulting value for specific airway conductance (sGaw). A minimum of five breaths were analysed for each animal at each time point to arrive at a mean value, which is the reported value.
In the experimental examples described herein, the reported values for sGaw measurements were taken following histamine or […] without treatment. This pre-treatment sGaw value measured after histamine or methacholine challenge, by convention, determined 100% bronchoconstriction for the animal. Following treatment with the experimental agents, including agents which are part of the subject invention, sGaw values (level of bronchoconstriction) were reported as a percentage of the pre-treatment value. Thus, a 10% post-treatment sGaw value, as compared to the 100% pre-treatment sGaw, is a 90% reduction in bronchoconstriction, or 90% reduction of airway hyperresponse (AHR). A 20% post-treatment sGaw value corresponds to an 80% reduction in bronchoconstriction or AHR. Thus, the lower the post-treatment sGaw value, the better the reduction of bronchoconstriction and AHR. For purposes of the subject invention, the more desired response is a lower sGaw value (less histamine- or methacholine-induced bronchoconstriction, and less AHR).
All drugs or vehicle were delivered as a whole body exposure chamber. […]
Tiotropium is an antimuscarinic or anticholinergic bronchodilator, different from the beta-agonist bronchodilators, such as salbutamol, described above. Baseline readings were taken on Day 1 prior to treatment (Pre-treatment) to determine 100% bronchoconstriction or AHR induced by methacholine. Recordings of sGaw were made at 0, 5 and 10 minutes after the […] (Post-treatment). The sGaw values of Day 3 are expressed as a percentage of Day 1 sGaw values following methacholine challenge (Pre-treatment), which is by definition set at 100%. Each point represents the mean+/−S.E.M. (n=6). Statistical significance was determined for p<0.05 using Student's paired t-test.
On Day 3, animals were treated with vehicle, alone, or with 1.0, 3.0, or 10.0 ug/ml of tiotropium. […] A dose of 0.1 µg/ml of tiotropium provided less than 40% reduction of AHR.

muscarinic receptors = conditions: cited from earlier work
[4] = system: recruitment of inflammatory cells (neutrophils); conditions: cited from earlier work
[5] = FIG. 1B, budesonide 0.44 mg/ml, equimolar to 0.63 mg/ml TPI-1020
[6] = FIG. 2B, budesonide 0.44 mg/ml, equimolar to 0.63 mg/ml TPI-1020
[7] = FIG. 3, salbutamol 30 μg/ml, 30 mins before histamine
[8] = FIG. 3, salbutamol 30 μg/ml, 60 mins before histamine
[9] = FIG. 3, salbutamol 30 μg/ml, 90 mins before histamine
[10] = FIG. 2D, TPI-1020 0.11 mMl (0.1 mg/ml in text)
[11] = FIG. 3, TPI-1020 0.3 mg/ml, 30 mins before histamine
[12] = FIG. 3, TPI-1020 0.3 mg/ml, 60 mins before histamine
[13] = FIG. 3, TPI-1020 0.3 mg/ml, 90 mins before histamine

Compound: CC(=O)N[C@H](C(=O)O)C(C)(C)SN=O (racemic) [SNAP, S-nitroso-N-acetylpenicillamine]
- % Inhibition ([1]; FIG. 2C, SNAP 0.15 mg/ml): 20% and 19%
- Post-treatment (% sGaw) ([1]; FIG. 2C, SNAP 0.15 mg/ml): −81.2 % sGaw
- % Inhibition ([1]; FIG. 2C, SNAP 0.31 mg/ml): 47%
- Post-treatment (% sGaw) ([1]; FIG. 2C, SNAP 0.31 mg/ml): −52.6 % sGaw
- % Inhibition ([1]; FIG. 2D, SNAP 0.7 mM): 19%
- Post-treatment (% sGaw) ([1]; FIG. 2D, SNAP 0.7 mM): −81.2 % sGaw

Compound: CCCC1O[C@@H]2C[C@H]3[C@@H]4CCC5=CC(=O)C=C[C@]5(C)[C@H]4[C@@H](O)C[C@]3(C)[C@]2(C(=O)CO)O1 (stereo partly drawn) [Budesonide, budesonide]
- % Inhibition [1, 5]: 35%
- Post-treatment (% sGaw) [1, 5]: −65.2 % sGaw
- % Inhibition [1, 6]: 35%
- Post-treatment (% sGaw) [1, 6]: −65.2 % sGaw
- % Inhibition ([1]; FIG. 2B, budesonide 0.44 mg/ml, equimolar to 0.63 mg/ml TPI-1020, listed as budesonide): 40%
- % Inhibition ([1]; FIG. 2D, budesonide 0.11 mM): 18%
- Post-treatment (% sGaw) ([1]; FIG. 2D, budesonide 0.11 mM): −81.8 % sGaw

Compound: COc1ccc(CC(C)NCC(O)c2ccc(O)c(NC=O)c2)cc1 (stereo not drawn) [Formoterol, formoterol]
- Duration of bronchodilation ([2]; dose 6 μg): 8 h
- Duration of bronchodilation ([2]; dose 12 μg): 10 h
- Duration of bronchodilation ([2]; dose 24 μg): 12 h

Compound: CC(C)(C)NCC(O)c1ccc(O)c(CO)c1 (stereo not drawn) [Salbutamol, salbutamol]
- % Inhibition ([1]; FIG. 1C, salbutamol 3 μg/ml): 12%
- Post-treatment (% sGaw) ([1]; FIG. 1C, salbutamol 3 μg/ml): −87.6 % sGaw
- % Inhibition ([1]; FIG. 1C, salbutamol 3 μg/ml, listed as salbutamol): no significant inhibition effect
- % Inhibition ([1]; FIG. 1C, salbutamol 10 μg/ml): 3%
- Post-treatment (% sGaw) ([1]; FIG. 1C, salbutamol 10 μg/ml): −96.7 % sGaw
- % Inhibition ([1]; FIG. 1C, salbutamol 10 μg/ml, listed as salbutamol): no significant inhibition effect
- % Inhibition ([1]; FIG. 1C, salbutamol 20 μg/ml): 20%
- Post-treatment (% sGaw) ([1]; FIG. 1C, salbutamol 20 μg/ml): −80.1 % sGaw
- % Inhibition ([1]; FIG. 1C, salbutamol 30 μg/ml): 84%
- Post-treatment (% sGaw) ([1]; FIG. 1C, salbutamol 30 μg/ml): −15.6 % sGaw
- % Inhibition ([1]; FIG. 1C, salbutamol 30 μg/ml, listed as salbutamol): 85%
- % Inhibition ([1]; FIG. 2D, salbutamol 20 μg/ml): 11%
- Post-treatment (% sGaw) ([1]; FIG. 2D, salbutamol 20 μg/ml): −89.0 % sGaw
- % Inhibition ([1]; FIG. 2D, salbutamol 20 μg/ml, listed as salbutamol): insignificant reduction of AHR; also recorded: do not significantly reduce AHR
- % Inhibition [1, 7]: 84%
- Post-treatment (% sGaw) [1, 7]: −15.6 % sGaw
- % Inhibition [1, 8]: 47%
- Post-treatment (% sGaw) [1, 8]: −52.7 % sGaw
- % Inhibition [1, 9]: 9%
- Post-treatment (% sGaw) [1, 9]: −91.4 % sGaw
- Duration of significant reduction of AHR after treatment ([1]; FIG. 3, salbutamol 30 μg/ml): 60 min

Compound: C[N+]1(C)[C@@H]2C[C@@H](OC(=O)C(O)(c3cccs3)c3cccs3)C[C@H]1[C@@H]1O[C@@H]12 [Tiotropium, tiotropium]
- % Inhibition ([3]; FIG. 5A, tiotropium 1 μg/ml): 35%
- Post-treatment (% sGaw) ([3]; FIG. 5A, tiotropium 1 μg/ml): −65.2 % sGaw
- % Inhibition ([3]; FIG. 5A, tiotropium 3 μg/ml): 73%
- Post-treatment (% sGaw) ([3]; FIG. 5A, tiotropium 3 μg/ml): −26.7 % sGaw
- % Inhibition ([3]; FIG. 5A, tiotropium 3 μg/ml, listed as tiotropium): about 75%
- % Inhibition ([3]; FIG. 5A, tiotropium 10 μg/ml): ~85%
- Post-treatment (% sGaw) ([3]; FIG. 5A, tiotropium 10 μg/ml): −14.9 % sGaw
- % Inhibition ([3]; FIG. 5C, tiotropium 1 μg/ml): 35%
- Post-treatment (% sGaw) ([3]; FIG. 5C, tiotropium 1 μg/ml): −65.2 % sGaw
- Selectivity for specific muscarinic receptors (muscarinic receptors): does not display selectivity for specific muscarinic receptors

Compound: budesonide 21-(4′-nitrooxymethyl)benzoate [TPI-1020]
- Post-treatment (% sGaw) ([3]; FIG. 5B, TPI-1020 0.1 mg/ml, 30 mins before methacholine): −94.0 % sGaw
- Post-treatment (% sGaw) ([3]; FIG. 5B, TPI-1020 0.1 mg/ml, 90 mins before methacholine): −86.9 % sGaw
- Post-treatment (% sGaw) ([3]; FIG. 5B, TPI-1020 0.3 mg/ml, 30 mins before methacholine): −18.4 % sGaw
- Post-treatment (% sGaw) ([3]; FIG. 5B, TPI-1020 0.3 mg/ml, 90 mins before methacholine): −65.3 % sGaw
- Post-treatment (% sGaw) ([3]; FIG. 5C, TPI-1020 0.1 mg/ml): −86.9 % sGaw
- % Inhibition ([1]; FIG. 1A, TPI-1020 0.1 mg/ml inhaled 15 min before 3 mM histamine): 20% and 21%
- % Inhibition ([1]; FIG. 1A, TPI-1020 0.3 mg/ml): 48%
- % Inhibition ([1]; FIG. 1A, TPI-1020 0.63 mg/ml): 95%
- Post-treatment (% sGaw) ([1]; FIG. 2A, TPI-1020 0.1 mg/ml): −83.2 % sGaw
- % Inhibition ([1]; FIG. 2A, TPI-1020 0.3 mg/ml): 48% and 50%
- Post-treatment (% sGaw) ([1]; FIG. 2A, TPI-1020 0.3 mg/ml): −49.5 % sGaw
- % Inhibition ([1]; FIG. 2A, TPI-1020 0.63 mg/ml): 80% and 72%
- Post-treatment (% sGaw) ([1]; FIG. 2A, TPI-1020 0.63 mg/ml): −27.9 % sGaw
- % Inhibition [1, 10]: insignificant reduction of AHR
- Post-treatment (% sGaw) [1, 10]: −83.2 % sGaw
- % Inhibition [1, 11]: 50%
- Post-treatment (% sGaw) [1, 11]: −49.5 % sGaw
- % Inhibition [1, 12]: 7%
- Post-treatment (% sGaw) [1, 12]: −92.7 % sGaw
- % Inhibition [1, 13]: −20%
- Post-treatment (% sGaw) [1, 13]: −120.1 % sGaw
- Duration of significant reduction of AHR after treatment ([1]; FIG. 3, salbutamol 30 μg/ml): 30 min
- % Inhibition ([1]; FIG. 4B, TPI-1020 0.1 mg/ml): 17%
- Post-treatment (% sGaw) ([1]; FIG. 4B, TPI-1020 0.1 mg/ml): −83.2 % sGaw
- % Inhibition ([1]; FIG. 4B, TPI-1020 0.3 mg/ml): −20%
- Post-treatment (% sGaw) ([1]; FIG. 4B, TPI-1020 0.3 mg/ml): −120.3 % sGaw
- Release in the lung of key mediators of inflammation ([4]; pre-clinical studies): significantly reduce release in the lung of key mediators of inflammation
- Recruitment of inflammatory cells (neutrophils) ([4]; rodent models of airway inflammation and pulmonary disease): significantly block the recruitment of inflammatory cells (neutrophils)
